Each structure is given as a SMILES string. Several values for one entry are separate records, joined by “and”; a condition that tells them apart may be missing. Equal values may be shown once. Activity calls are given as the source filed them.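 The calls were made as follows: active = compounds giving half or more protection of infected cells from virus-caused growth loss, again on retest; inactive = the rest.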 Where a SMILES comes first, the peptide text is derived from it. The star is where a group is joined. Boc = CC(C)(C)OC(=O)*

The text below walks through data of PubChem BioAssay AID179 (DTP/NCI, 2004).

The subject of this test is CEM cells HIV-1 protection, formazan growth assay. The test can be described thus: NCI AIDS Antiviral Assay. Particulars: for IC50: measured here: growth of uninfected CEM cells. In outline: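 Soluble formazan readout of cell growth; CEM cells ± HIV-1; 5 drug concs. ≥50% protection → retest; ≥50% again = moderately active; reproducible 100% = confirmed active.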

What is called EC50 is the concentration that produces a half-maximal response. As usually defined, the IC50 is the midpoint of a concentration-inhibition curve. The low end stands for higher potency, the high end for lower potency. In the case of `NC(=O)c1ccc(NN=O)nc1`, the EC50 is over 200 µM and the IC50 was over 200 µM. As for `CC1=C/C(=C2/N=C(N(C)C)SS2)C(C)=N1`, the outcome was inactive. `CC(C)N(C(=O)C12C3C4C1C1C2C3C41C#N)C(C)C` (centres undefined): the EC50 is over 513 µM and the IC50 is over 513 µM. As for `CCn1ccc(=O)nc1`, the EC50 was over 200 µM and the IC50 is over 200 µM. For `COc1nc(C(O)C2OC(C)(C)OCC2O)[nH]c1C#N` (centres undefined), the result was inactive. On to `O=[N+]([O-])c1cc(Cl)ccc1S(=O)(=O)c1ccc(Cl)cc1[N+](=O)[O-]`, for which the result was inactive. `N#C/C(C(=S)NCc1ccccc1)=C1/Nc2ccccc2O1`: the EC50 was over 200 µM and the half-inhibitory concentration (IC50) was 33.1 µM. As for `CN(C)c1ccc(N2C(=S)SC(=Nc3ccccc3)C2=Nc2ccccc2)cc1`, the EC50 was over 200 µM and the IC50 was over 200 µM. On to `C/C(=N\N)C(CN1CCCCC1)C(c1ccccc1)c1c(O)c2ccccc2oc1=O` (centres undefined), for which the EC50 was over 107 µM and the 50% inhibitory concentration (IC50) was determined as 69.2 µM.

Take `CC(C)=CCC/C(C)=C/CCC1(C)C2COC(=O)C21` (centres undefined): the EC50 is over 200 µM and the IC50 was determined as 46.8 µM. On the same counts, the results for `O=C(CC(=O)N1N=C(c2ccccc2)C(N=Nc2ccccc2Cl)C1=O)Nc1ccccc1Cl` (centres undefined) are over 52.5 µM and 29.5 µM. For `CC(C)(C)C(O)CC(O)(C(F)(F)F)C(F)(F)F` (centres undefined), in that order: over 200 µM and over 200 µM. On the same counts, the results for `CC1=C(O)C(=O)C2C(=O)C1C(C)C2c1ccc(Cl)cc1` (centres undefined) are over 123 µM and over 123 µM. With `CC(C)C(NC(=O)OC(C)(C)C)C(=O)N1CCCC1C(=O)O` (stereo not drawn) (Boc-Val-Pro-OH; configuration not given here), the EC50 is over 200 µM and the IC50 is over 200 µM.

As for `O=c1oc(-c2ccccc2)nnc1-c1ccccc1`, the EC50 was over 178 µM and the IC50 is over 178 µM. Take `O=c1oc2ccccc2c(O)c1Cc1c(O)c2ccccc2oc1=O`: the EC50 was over 200 µM; the IC50 is 55 µM and > 200 µM. Take `COc1cc2c3c(c1)nnn3C(=O)CS2`: the EC50 is over 200 µM and the IC50 is over 200 µM. Consider `Cc1cc(C)c2c(c1)NP(=S)(c1ccccc1)N2` (centres undefined), for which the EC50 was over 200 µM and the 50% inhibitory concentration (IC50) was over 200 µM. In the case of `CC(C)COC(=O)N1N=NC2C3OC(CC3=O)C21` (centres undefined), the EC50 is over 977 µM and the IC50 is over 977 µM. `COc1ccc(C(=O)C#Cc2cnc(OC)nc2OC)cc1`: the EC50 was over 2 µM and the 50% inhibitory concentration (IC50) stood at 0.363 µM. With `CN(CCO)CC(=O)CC(O)(C(F)(F)F)C(F)(F)F`, the EC50 was over 200 µM and the half-inhibitory concentration (IC50) amounted to 39.8 µM. `CN(C)C(=O)NC(=S)N(C)C`: the result was inactive. On the same count and under the same terms, the same measure for `O=C1C2C(C(=O)N1c1ccccc1)C1(c3ccccc3)SC2(c2ccccc2)c2c(-c3ccccc3)sc(-c3ccccc3)c21` (centres undefined): “inactive”. Take `O=C1OC(=O)c2c(O)cc(O)c(=O)cc21`: the EC50 is over 331 µM and the IC50 was 209 µM.

In the case of `CCCNC(=S)N/N=C(\C)c1ccc(S(=O)(=O)N(C)c2ccccc2)cc1`, the EC50 was over 200 µM and the concentration for half-maximal inhibition (IC50) was over 200 µM. With `COc1oc(C(=O)NC2CCCCC2)c(-c2ccc(Cl)cc2)c1S(=O)(=O)c1ccccc1`, the EC50 is over 200 µM and the IC50 came out at 9.77 µM. On the same counts, the results for `Cn1c(=O)c2c(nc(NCCCCl)n2CC(=O)NCCCCl)n(C)c1=O` are over 200 µM and over 200 µM. For `C=Cc1ccccc1N=NC(C(=O)OC)=P(c1ccccc1)(c1ccccc1)c1ccccc1`, in that order: over 1.17 µM and over 1.17 µM. On the same counts, the results for `Cc1cccc(NC(=S)N=Nc2c(O)[nH]c3ccccc23)c1` are over 200 µM and 117 µM.

With `O=[N+]([O-])c1ccc(Cl)c([N+](=O)[O-])c1`, the EC50 is over 200 µM and the IC50 amounted to 3.31 µM. On the same counts, the results for `O=C(O)c1cccc(-c2c3ccc(=O)cc-3oc3cc(O)ccc23)c1` are over 316 µM and 53.7 µM. On to `CN(C)Cc1c[nH]c2c1S/C(=C/c1ccccc1)C2=O`, for which the EC50 is over 178 µM and the IC50 was 16.6 µM.

As for `C=C1CC(Cn2ccc(=O)[nH]c2=O)(c2ccc(Cl)cc2)OC1=O` (centres undefined), the EC50 was over 20 µM and the half-maximal inhibitory concentration (IC50) was 0.912 µM. For `CCOP(N)(=O)c1ccccc1` (centres undefined), in that order: over 200 µM and over 200 µM. For `C=CCNC(=O)NCCCC(NC(C)=O)C(=O)NCc1ccccc1` (centres undefined), in that order: over 72.4 µM and over 72.4 µM. For `N#CC(C(=O)/C(=N/NC(=O)c1ccccc1O)C(C#N)c1ccccc1)c1ccccc1` (centres undefined), in that order: over 589 µM and 10.7 µM. Take `O=C1CCCCC1C(O)(C(F)(F)F)C(F)(F)Cl` (centres undefined): the EC50 is over 200 µM and the concentration for half-maximal inhibition (IC50) was determined as 85.1 µM.

As to `COc1ccc(C2=NN(C(C)=O)c3nc4ccccc4nc3O2)cc1`, the outcome was inactive.

For `C=CCNC(=S)/N=C/c1c(O)c2ccccc2oc1=O`, the EC50 was over 64.6 µM and the half-inhibitory concentration (IC50) was 43.7 µM. On the same counts, the results for `O=P1(OCC(F)(F)C(F)F)Oc2ccccc2O1` are over 41.7 µM and 3.24 µM. On to `CN(C)CC1CCC/C1=N/OC(=O)c1ccccc1` (centres undefined), for which the outcome was inactive. On to `O=C(O)c1cscc1Cc1ccccc1`, for which the EC50 was over 200 µM and the 50% inhibitory concentration (IC50) is over 200 µM. As to `C[N+](C)(C)CC1CCCC/C1=N\OC(=O)c1ccccc1` (centres undefined), the EC50 is over 603 µM and the 50% inhibitory concentration (IC50) amounted to 575 µM. On the same counts, the results for `c1ccc(N=C2SC(=NNc3ccccc3)SC2=Nc2ccccc2)cc1` are over 200 µM and over 200 µM. As to `CCN1CCC(O)(c2ccc(O)cc2)C(C(=O)c2ccc(O)cc2)C1` (centres undefined), the EC50 was over 16.2 µM and the half-maximal inhibitory concentration (IC50) is over 16.2 µM. In the case of `CC(C)(C)C(=O)C(C(=O)c1ccccc1)C(=O)C(C)(C)C`, the EC50 was over 200 µM and the concentration for half-maximal inhibition (IC50) was over 200 µM. In the case of `Clc1cc(Cl)cc(C2ON=C(c3ccccc3)N2C23CC4CC(CC(C4)C2)C3)c1` (centres undefined), the EC50 was over 200 µM and the concentration for half-maximal inhibition (IC50) was over 200 µM. As for `COc1cccc2c1C(=O)c1c(O)c3c(c(O)c1C2=O)CC1(O)CC3OC1(C)OC` (centres undefined), the EC50 is over 4.57 µM and the half-inhibitory concentration (IC50) is over 4.57 µM. For `c1ccc(C2ON2CCCN2OC2c2ccccc2)cc1` (centres undefined), the EC50 was over 200 µM and the concentration for half-maximal inhibition (IC50) is over 200 µM. Regarding `Oc1c(C(Nc2cccc3cccnc23)c2ccccc2)ccc2cccnc12` (centres undefined), the EC50 was over 3.8 µM and the IC50 came to 0.933 µM. For `Cc1cc(Cl)c(O)c(-c2cc(-c3cccc([N+](=O)[O-])c3)c3c(N)[nH]c(=S)nc3n2)c1`, in that order: over 200 µM and 3.89 µM. On the same counts, the results for `CC1(C)CC(=O)C2C(C1)Nc1ccccc1NC2c1cccc([N+](=O)[O-])c1` (centres undefined) are over 200 µM and 93.3 µM. For `Cc1ccc(NC(=O)CCc2nnc3s/c(=C\C=C\c4ccccc4)c(=O)n23)cc1`, in that order: over 61.7 µM and over 61.7 µM. On to `C[C@]12CCC3c4ccc(OC(=O)c5ccccc5)cc4CC[C@H]3C1CC[C@@H]2OC(=O)C12OC1CCC2=O` (some centres undefined), for which the EC50 is over 200 µM and the IC50 worked out at 4.07 µM. Consider `O=C(NC1CCCCC1)NS(=O)(=O)c1ccc2c(c1)CCC2`, for which the EC50 is over 200 µM and the 50% inhibitory concentration (IC50) is over 200 µM. For the molecule `CC1=CC2c3c(O)cc(-c4cc5ccc(O)cc5o4)cc3OC3(c4ccc(O)cc4O)Oc4cc(O)ccc4[C@H](C1)C23` (some centres undefined), the EC50 was over 22.9 µM and the IC50 came out at 2.04 µM. With `CCN=C(N)C(C)SS(=O)(=O)O` (centres undefined), the EC50 was over 200 µM and the IC50 is 170 µM. For `[N-]=[N+]=NC1C(O)C(O)C(O)C(O)C1O` (centres undefined), in that order: over 603 µM and over 603 µM.

For `CCCN1CCC(=O)N(CCC(F)(F)C(F)(F)C(F)(F)C(F)(F)C(F)(F)C(F)(F)F)C1=S`, the EC50 was over 50.1 µM and the 50% inhibitory concentration (IC50) is over 50.1 µM. Take `COc1cc(OC)cc(-c2cc(=O)c3c(OC)c(OC)c(OC)c(OC)c3o2)c1`: the EC50 is over 200 µM and the IC50 worked out at 26.9 µM. Consider `O=C1CCC[C@]2(CCCC(=O)N2)C1`, for which the result was inactive.

For the molecule `N#C/C(=C\c1cc(O)c(O)c(O)c1)C(N)=O`, the EC50 was over 200 µM and the concentration for half-maximal inhibition (IC50) is 91.2 µM. On the same counts, the results for `COc1ccc(C2S/C(=C\c3cccc(OC)c3)C(=O)N2NC(=O)Cc2ccccc2)cc1` (centres undefined) are over 107 µM and over 107 µM. On the same counts, the results for `N#CC(C(=O)/C(=N\NC(N)=O)C(C#N)c1ccccc1)c1ccccc1` (centres undefined) are over 724 µM and over 724 µM.

Regarding `O=C1CC(c2ccccc2)NCN1` (centres undefined), the outcome was inactive. In the case of `Cc1cc(=O)oc2c3c(cc(OCc4ccccc4)c12)OC(C)(C)[C@H](OC(=O)C12CCC(C)(C(=O)O1)C2(C)C)[C@@H]3OC(=O)C12CCC(C)(C(=O)O1)C2(C)C` (some centres undefined), the EC50 was over 200 µM and the IC50 is 44.7 µM. Take `O=C(Nc1ccc(Cl)cc1)c1cc2cc(N=Nc3ccc(Br)cc3)ccc2oc1=O`: the result was inactive. As for `c1ccc(COc2ccc(CC3SCCCS3)cc2)cc1`, the EC50 is over 200 µM and the IC50 is over 200 µM. Turning to `CCN(CC)CCOC(NC(C)=O)(c1ccccc1)c1ccccc1`, the EC50 is over 200 µM and the concentration for half-maximal inhibition (IC50) was over 200 µM. In the case of `COC(=O)C1=C(C)C(=O)C2(CCCCCC2C(=O)OC)C1` (centres undefined), the EC50 was over 200 µM and the IC50 was over 200 µM. Take `CC1CC2C(=O)NC(=O)C2c2[nH]c3ccccc3c21` (centres undefined): the result was inactive. Consider `CC1(C)N=C(C(N)=O)c2ncn(N)c2N1`, for which the EC50 is over 200 µM and the half-maximal inhibitory concentration (IC50) was over 200 µM. Consider `c1ccc2c(c1)ncn1nnnc21`, for which the EC50 is over 955 µM and the concentration for half-maximal inhibition (IC50) stood at 501 µM. For `CC1=C(C(=O)N(C(C)C)C(C)C)CC(C(=O)N(C(C)C)C(C)C)=C(C)N1`, in that order: over 200 µM and 120 µM. Turning to `Nc1ncnc2c1nc1n2C2OC(CO)C(O)C2O1` (centres undefined), the EC50 is over 339 µM and the IC50 is over 339 µM.
